Experimental data published in patent US10660336B2 (priority 2014, dated 2020).
Where two headings read alike, the source gives them in different places.

Assays:
[1] = test system: pepper mottle virus (PepMoV); set-up: species or system Capsicum anuum L.; conditions: in vivo
[2] = test system: pepper mottle virus (PepMoV); set-up: species or system Nicotiana benthamiana; conditions: in vivo
tobacco mosaic virus = test: Half leaf method, anti-viral activity against tobacco mosaic virus (local lesion count); type: in vivo; conditions: concentration of 5 ppm or above; Nicotiana tabacum cv. Xanthi nc half leaf; 3 days after inoculation
Protocol: A half leaf method was performed to determine an anti-viral activity against tobacco mosaic virus, which was provided from the plant virus genebank (PVGB), Seoul women's university, of the compounds which was determined to have the anti-viral activity against the pepper mottle virus in Example 3. The half leaf method utilizes features of producing black spots due to local lesions around the infected part by tobacco mosaic virus in Nicotiana tabacum cv. Xanthi nc which is a local lesion host. Top 3 leaves and 4 leaves of 7-8 normal leaves of the local lesion host were taken and carborundum was evenly sprayed throughout the leaves. A compound 1 (Trichodermin) sample at test concentrations dissolved in DMSO and the tobacco mosaic virus solution were mixed. Right half leaf of the leaf of the Nicotiana tabacum cv. Xanthi nc was inoculated with this mixture and the other left half leaf was inoculated with tobacco mosaic virus solution (control) using cotton swabs. After petiole of the leaf of the Nicotiana tabacum cv. […] After 3 days of inoculation, the number of local lesions was counted and 100-400 of lesions of […] control half leaf was only applied. Activity rate using the number of lesions was calculated by the following equation. […]

CC(=O)O[C@@H]1C[C@H]2O[C@@H]3C=C(C)CC[C@]3(C)[C@]1(C)[C@]21CO1 [Trichodermin]
spreading rate of the pepper mottle virus (green fluorescent protein in upper leaves under UV, viral RNA and coat protein) [1]: inhibits spreading rate of the pepper mottle virus | spreading rate of the pepper mottle virus (green fluorescent protein in upper leaves under UV, viral RNA and coat protein) [2]: inhibits spreading rate of the pepper mottle virus | anti-viral activity against the tobacco mosaic virus (control rate from number of local lesions) (tobacco mosaic virus): ≥ 97%
